Data taken from patent US12252524B2, “GIP/GLP1 co-agonist compounds” (Eli Lilly and Company, priority 2018, dated 2025).
Numbered stars: 1 amine (or outer) side, 2 acyl side, 3 side chain; on linkers, the order of the positions; unused ones are H or OH. Square brackets hold non-standard residues; d marks the D form. Side chains are listed from the residue outwards. Peptide text beside a SMILES is read from it. * marks the point of attachment. C20 diacid = O=C(O)CCCCCCCCCCCCCCCCCCC(=O)*; C18 diacid = O=C(O)CCCCCCCCCCCCCCCCC(=O)*; αMePhe(2-F) = C[C@](N)(Cc1ccccc1F)C(=O)O; γGlu = O=C(O)[C@H](CCC(=O)[*:2])N[*:1]; Desaminohistidyl = O=C(CCc1c[nH]cn1)*; 4Pal = N[C@@H](Cc1ccncc1)C(=O)O; αMeL = CC(C)C[C@](C)(N)C(=O)O; AEEA = NCCOCCOCC(=O)O; Aib = CC(C)(N)C(=O)O

Experiments:
[1] = target: T1, human GIP receptor (Homo sapiens, UniProt P48546); assay: [125I]-GIP binding (SPA), human GIP receptor; conditions: read-out: hGIPR Ki, nM (SEM, n)
T1 construct: expressed in transfected cells; crude membranes
T1 sequence (P48546 22-466): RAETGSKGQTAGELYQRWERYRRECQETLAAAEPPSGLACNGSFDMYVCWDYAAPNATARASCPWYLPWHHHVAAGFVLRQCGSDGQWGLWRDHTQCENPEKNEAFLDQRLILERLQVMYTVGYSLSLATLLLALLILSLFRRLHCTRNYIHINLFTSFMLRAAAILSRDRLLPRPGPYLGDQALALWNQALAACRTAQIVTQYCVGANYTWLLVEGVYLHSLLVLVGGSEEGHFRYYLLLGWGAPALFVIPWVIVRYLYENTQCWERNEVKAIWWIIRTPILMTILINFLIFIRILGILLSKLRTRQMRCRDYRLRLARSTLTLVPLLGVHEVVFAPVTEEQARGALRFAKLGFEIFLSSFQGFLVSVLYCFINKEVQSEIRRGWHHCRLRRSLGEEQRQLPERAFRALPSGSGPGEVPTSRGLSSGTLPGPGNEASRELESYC

[2] = target: human GLP-1 receptor (GLP-1R) (Homo sapiens, UniProt P43220); assay: cAMP pharmacological functional assay in presence of casein, hGLP-1R; assay type: cell-based; conditions: HEK293 cells expressing hGLP-1R, 0.1% Casein, geometric mean; read-out: hGLP1R cAMP Rel EC50 nM (SEM, n)
Sequence of human GLP-1 receptor (GLP-1R) (P43220 24-463): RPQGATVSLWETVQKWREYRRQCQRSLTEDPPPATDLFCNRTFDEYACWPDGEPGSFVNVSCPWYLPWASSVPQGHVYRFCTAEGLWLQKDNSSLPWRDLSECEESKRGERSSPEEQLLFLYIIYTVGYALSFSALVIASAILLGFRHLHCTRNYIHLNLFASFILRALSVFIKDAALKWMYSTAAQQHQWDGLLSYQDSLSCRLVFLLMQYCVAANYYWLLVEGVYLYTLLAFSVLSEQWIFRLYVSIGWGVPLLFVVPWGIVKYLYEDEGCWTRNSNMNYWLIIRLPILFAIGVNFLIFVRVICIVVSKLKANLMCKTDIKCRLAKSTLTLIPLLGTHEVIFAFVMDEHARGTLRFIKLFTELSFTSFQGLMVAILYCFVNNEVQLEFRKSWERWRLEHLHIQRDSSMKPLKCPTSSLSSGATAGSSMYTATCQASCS

[3] = target: T2, human Gcg receptor (Homo sapiens, UniProt P47871); assay: [125I]-Glucagon binding (SPA), human Gcg receptor; conditions: read-out: hGLcgR Ki, nM (SEM, n)
T2 construct: expressed in transfected cells; crude membranes
T2 sequence (P47871 26-477): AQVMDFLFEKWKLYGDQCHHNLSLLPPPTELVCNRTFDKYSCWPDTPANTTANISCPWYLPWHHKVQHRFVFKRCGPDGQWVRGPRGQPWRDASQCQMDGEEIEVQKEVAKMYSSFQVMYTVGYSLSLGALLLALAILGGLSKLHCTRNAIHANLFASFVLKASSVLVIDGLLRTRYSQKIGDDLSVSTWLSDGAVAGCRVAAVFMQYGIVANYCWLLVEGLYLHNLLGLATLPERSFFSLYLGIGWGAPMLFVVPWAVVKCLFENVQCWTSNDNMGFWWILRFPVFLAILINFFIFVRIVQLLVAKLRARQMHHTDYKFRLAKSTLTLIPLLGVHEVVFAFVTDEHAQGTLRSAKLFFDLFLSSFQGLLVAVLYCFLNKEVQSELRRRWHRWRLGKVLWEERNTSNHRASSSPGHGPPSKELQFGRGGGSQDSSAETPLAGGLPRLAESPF
Method in brief: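 Cell pellets were lysed in hypotonic Tris buffer, pH 7.5, homogenized, and spun at low then high speed to give crude membranes. Ki was derived from the fitted IC50.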

[4] = target: human GLP-1R (Homo sapiens, UniProt P43220); assay: [125I]-GLP-1 binding (SPA), human GLP-1 receptor; set-up: expressed in transfected cells; crude membranes; conditions: read-out: hGLP1R Ki, (nM) (SEM, n)
Sequence of human GLP-1R (P43220 24-463): as the sequence (P43220 24-463) above
Method in brief: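 Membranes: hypotonic lysis (50 mM Tris HCl, pH 7.5, protease inhibitors), Potter-Elvehjem homogenization, high-speed pellet (35000×g 1 h or 25000×g 30 min, 4° C.). Buffer: 25 mM HEPES pH 7.4, 2.5 mM CaCl2, 1 mM MgCl2. Four-parameter IC50 fit; Ki as geometric mean ± SEM.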

[5] = target: T3, gastric inhibitory peptide receptor (GIPR) (Homo sapiens, UniProt P48546); assay: cAMP pharmacological functional assay in presence of casein, hGIPR; assay type: cell-based; conditions: HEK293 cells expressing hGIPR, 0.1% Casein, geometric mean; read-out: hGIPR cAMP Rel EC50 nM (SEM, n)
T3 sequence (P48546 22-466): T1 sequence (P48546 22-466)

Compound | Ki [1] [nM] | EC50 [2] [nM] | Ki [3] [nM] | Ki [4] [nM] | EC50 [5] [nM]
CC[C@H](C)[C@H](NC(=O)[C@H](CC(C)C)NC(=O)[C@H](Cc1ccc(O)cc1)NC(=O)[C@H](CCC(=O)O)NC(=O)[C@@H](NC(=O)[C@H](Cc1ccccc1)NC(=O)[C@H](C)NC(=O)C(C)(C)NC(=O)[C@H](CCC(N)=O)NC(=O)[C@H](C)NC(=O)[C@H](CCCCNC(=O)COCCOCCNC(=O)COCCOCCNC(=O)CC[C@H](NC(=O)CCCCCCCCCCCCCCCCCCC(=O)O)C(=O)O)NC(=O)[C@H](CCCCN)NC(=O)[C@H](CC(=O)O)NC(=O)[C@H](CC(C)C)NC(=O)[C@H](CC(C)C)NC(=O)[C@@H](NC(=O)[C@H](CO)NC(=O)[C@H](Cc1ccc(O)cc1)NC(=O)[C@H](CC(=O)O)NC(=O)[C@H](CO)NC(=O)[C@@H](NC(=O)[C@H](Cc1ccccc1)NC(=O)[C@@H](NC(=O)CNC(=O)[C@H](CCC(=O)O)NC(=O)C(C)(C)NC(=O)CCc1c[nH]cn1)[C@@H](C)O)[C@@H](C)O)[C@@H](C)CC)[C@@H](C)CC)C(=O)N[C@@H](CCC(=O)O)C(=O)NCC(=O)NCC(=O)N1CCC[C@H]1C(=O)N[C@@H](CO)C(=O)N[C@@H](CO)C(=O)NCC(=O)N[C@@H](C)C(=O)N1CCC[C@H]1C(=O)N1CCC[C@H]1C(=O)N1CCC[C@H]1C(=O)N[C@@H](CO)C(N)=O [Example 106] (Desaminohistidyl-[Aib]EGTFTSDYSILLDKK([AEEA-AEEA-γGlu-C20 diacid])AQ[Aib]AFIEYLIEGGPSSGAPPPS-NH2) | 0.179 | 0.0413 | 515 | 1.2 | 6.54
CC[C@H](C)[C@H](NC(=O)[C@H](CC(C)C)NC(=O)[C@H](Cc1ccc(O)cc1)NC(=O)[C@@H](CCC(=O)O)NC(=O)[C@@H](NC(=O)[C@H](Cc1ccccc1)NC(=O)[C@@H](NC(=O)C(C)(C)NC(=O)[C@H](CCC(N)=O)NC(=O)[C@H](C)NC(=O)[C@H](CCCCNC(=O)COCCOCCNC(=O)COCCOCCNC(=O)CC[C@H](NC(=O)CCCCCCCCCCCCCCCCCCC(=O)O)C(=O)O)NC(=O)[C@H](CCC(=O)O)NC(=O)[C@H](CC(=O)O)NC(=O)[C@H](CC(C)C)NC(=O)[C@](C)(CC(C)C)NC(=O)[C@@H](NC(=O)[C@H](CO)NC(=O)C(C)(C)NC(=O)[C@H](CC(=O)O)NC(=O)[C@H](CO)NC(=O)[C@@H](NC(=O)[C@](C)(Cc1ccccc1F)NC(=O)[C@@H](NC(=O)CNC(=O)[C@H](CCC(=O)O)NC(=O)C(C)(C)NC(=O)[C@@H](N)Cc1ccc(O)cc1)[C@@H](C)O)[C@@H](C)O)[C@@H](C)CC)[C@@H](C)O)[C@@H](C)CC)C(=O)N[C@@H](CCC(=O)O)C(=O)NCC(=O)NCC(=O)N1CCC[C@H]1C(=O)N[C@@H](CO)C(=O)N[C@@H](CO)C(=O)NCC(=O)N[C@@H](C)C(=O)N1CCC[C@H]1C(=O)N1CCC[C@H]1C(=O)N1CCC[C@H]1C(=O)N[C@@H](CO)C(N)=O [Example 160] (H-Y[Aib]EGT[αMePhe(2-F)]TSD[Aib]SI[αMeL]LDEK([AEEA-AEEA-γGlu-C20 diacid])AQ[Aib]TFI[dE]YLIEGGPSSGAPPPS-NH2) | 5.98 | 0.0461 | > 1060 | 14.4 | 21
CC[C@H](C)[C@H](NC(=O)[C@H](CC(C)C)NC(=O)[C@H](Cc1ccc(O)cc1)NC(=O)[C@H](CCC(=O)O)NC(=O)[C@@H](NC(=O)[C@H](Cc1ccccc1)NC(=O)[C@H](CCC(=O)O)NC(=O)C(C)(C)NC(=O)[C@H](CCC(N)=O)NC(=O)[C@H](C)NC(=O)[C@H](CCCCNC(=O)COCCOCCNC(=O)COCCOCCNC(=O)CC[C@H](NC(=O)CCCCCCCCCCCCCCCCC(=O)O)C(=O)O)NC(=O)[C@H](CCCCN)NC(=O)[C@H](CC(=O)O)NC(=O)[C@H](CC(C)C)NC(=O)[C@H](CC(C)C)NC(=O)[C@@H](NC(=O)[C@H](CO)NC(=O)[C@H](Cc1ccc(O)cc1)NC(=O)[C@H](CC(=O)O)NC(=O)[C@H](CO)NC(=O)[C@@H](NC(=O)[C@H](Cc1ccccc1)NC(=O)[C@@H](NC(=O)CNC(=O)[C@H](CCC(=O)O)NC(=O)C(C)(C)NC(=O)[C@@H](N)Cc1ccc(O)cc1)[C@@H](C)O)[C@@H](C)O)[C@@H](C)CC)[C@@H](C)CC)C(=O)N[C@@H](C)C(=O)NCC(=O)NCC(N)=O [Example 297] (H-Y[Aib]EGTFTSDYSILLDKK([AEEA-AEEA-γGlu-C18 diacid])AQ[Aib]EFIEYLIAGG-NH2) | 0.0958 | 0.111 | > 1240 | 2.98 | 0.0451
CC[C@H](C)[C@H](NC(=O)[C@H](CC(C)C)NC(=O)[C@H](Cc1ccc(O)cc1)NC(=O)[C@H](CCC(=O)O)NC(=O)[C@@H](NC(=O)[C@H](Cc1ccccc1)NC(=O)[C@H](C)NC(=O)C(C)(C)NC(=O)[C@H](CCC(N)=O)NC(=O)[C@H](C)NC(=O)[C@H](CCCCNC(=O)CCCCCCCNC(=O)COCCOCCNC(=O)CC[C@H](NC(=O)CCCCCCCCCCCCCCCCCCC(=O)O)C(=O)O)NC(=O)[C@H](CCCCN)NC(=O)[C@H](CC(=O)O)NC(=O)[C@H](CC(C)C)NC(=O)[C@H](CC(C)C)NC(=O)[C@@H](NC(=O)[C@H](CO)NC(=O)[C@H](Cc1ccc(O)cc1)NC(=O)[C@H](CC(=O)O)NC(=O)[C@H](CO)NC(=O)[C@@H](NC(=O)[C@H](Cc1ccccc1)NC(=O)[C@@H](NC(=O)CNC(=O)[C@H](CCC(=O)O)NC(=O)C(C)(C)NC(=O)[C@@H](N)Cc1ccc(O)cc1)[C@@H](C)O)[C@@H](C)O)[C@@H](C)CC)[C@@H](C)CC)C(=O)N[C@@H](CCC(=O)O)C(=O)NCC(=O)NCC(=O)N1CCC[C@H]1C(=O)N[C@@H](CO)C(=O)N[C@@H](CO)C(=O)NCC(=O)N[C@@H](C)C(=O)N1CCC[C@H]1C(=O)N1CCC[C@H]1C(=O)N1CCC[C@H]1C(=O)N[C@@H](CO)C(N)=O [Example 109] | 0.0279 | 0.35 | 43.1 | 1.34 | 0.109
CC[C@H](C)[C@H](NC(=O)[C@H](CC(C)C)NC(=O)[C@H](Cc1ccc(O)cc1)NC(=O)[C@@H](CCC(=O)O)NC(=O)[C@@H](NC(=O)[C@H](Cc1ccccc1)NC(=O)[C@H](CCC(=O)O)NC(=O)C(C)(C)NC(=O)[C@H](CCC(N)=O)NC(=O)[C@H](C)NC(=O)[C@H](CCCCNC(=O)COCCOCCNC(=O)COCCOCCNC(=O)CC[C@H](NC(=O)CCCCCCCCCCCCCCCCCCC(=O)O)C(=O)O)NC(=O)[C@H](CCCCN)NC(=O)[C@H](CC(=O)O)NC(=O)[C@H](CC(C)C)NC(=O)[C@](C)(CC(C)C)NC(=O)[C@@H](NC(=O)[C@H](CO)NC(=O)[C@H](Cc1ccncc1)NC(=O)[C@H](CC(=O)O)NC(=O)[C@H](CO)NC(=O)[C@@H](NC(=O)[C@](C)(Cc1ccccc1F)NC(=O)[C@@H](NC(=O)CNC(=O)[C@H](CCC(=O)O)NC(=O)C(C)(C)NC(=O)[C@@H](N)Cc1ccc(O)cc1)[C@@H](C)O)[C@@H](C)O)[C@@H](C)CC)[C@@H](C)CC)C(=O)N[C@@H](CCC(=O)O)C(=O)NCC(=O)NCC(=O)N1CCC[C@H]1C(=O)N[C@@H](CO)C(=O)N[C@@H](CO)C(=O)NCC(=O)N[C@@H](C)C(=O)N1CCC[C@H]1C(=O)N1CCC[C@H]1C(=O)N1CCC[C@H]1C(=O)N[C@@H](CO)C(N)=O [Example 203] (H-Y[Aib]EGT[αMePhe(2-F)]TSD[4Pal]SI[αMeL]LDKK([AEEA-AEEA-γGlu-C20 diacid])AQ[Aib]EFI[dE]YLIEGGPSSGAPPPS-NH2; N-terminus assumed) | 0.0337 | 0.0679 | 845 | 3.9 | 0.0387
